Laboratory results from patent US8183270B2, “Insecticidal N-substituted (2-substituted-1,3-thiazol)alkyl sulfoximines” (Dow AgroSciences, LLC, priority 2006, dated 2012).

How the values were obtained:
[1] = system: cotton aphid (Aphis gossypii); test: Insecticidal test for cotton aphid in foliar spray assay; format: in vivo; details: foliar spray on squash cotyledons, 3 days after treatment, Corrected % Control (Abbott)
Procedure: The compounds identified in the foregoing examples (compounds 1-5) and in Table 1 (compounds 6-18) were tested against cotton aphid using procedures described hereinafter. Insecticidal Test for Cotton Aphid (Aphis gossypii) in Foliar Spray Assay Squash with fully expanded cotyledon leaves were trimmed to one cotyledon per plant and infested with cotton aphid (wingless adult and nymph) 1 day prior to chemical application. Each plant was examined before chemical application to ensure proper infestation (ca. 30-70 aphids per plant). Compounds (2 mg) were dissolved in 2 ml of acetone:methanol (1:1) solvent, forming stock solutions of 1000 ppm. The stock solutions were diluted 5× with 0.025% Tween 20 in H2O to obtain the highest test solution at 200 ppm. A lower test concentration (50 ppm) was prepared by making sequential a 4× dilution from the 200 ppm solution with a diluent consisting 80 parts of 0.025% Tween 20 in H2O and 20 parts of acetone:methanol (1:1). A hand-held Devilbiss sprayer was used to apply the spray solutions until runoff to both sides of the squash cotyledon leaves. Four plants (4 replications) were used for each concentration of each compound. Reference plants (solvent check) were sprayed with the diluent only. Treated plants were held in a holding room for 3 days at approximately 23° C. and 40% RH before the number of live aphids on each plant was recorded. Insecticidal activity was measured by Corrected % Control using Abbott's correction formula and the values for the lower test concentrations are presented in Table 1: Corrected % Control=100*(X−Y)/X • where X=No. of live aphids on solvent check plants • Y=No. of live aphids on treated plants CA 200 refers to % control at 200 ppm against cotton aphid in foliar spray tests, CA 50 refers to % control at 50 ppm against cotton aphid in foliar spray tests, In each case of Table 2 the rating scale is as follows: […]

Row | SMILES | CA 50 (% control at 50 ppm against cotton aphid in foliar spray tests) [1] | CA 200 (% control at 200 ppm against cotton aphid in foliar spray tests) [1] | melting point [°C]
1 | CS(=O)(Cc1cnc(C(F)(F)F)s1)=NC#N (stereo not drawn) [Compound 1, Methyl(oxido){[2-(trifluoromethyl)-1,3-thiazol-5-yl]methyl}-λ^4-sulfanylidenecyanamide] | A (90-100) | A (90-100) | 123 to 124
2 | CC(C)(c1cnc(C(F)(F)F)s1)S(C)(=O)=NC#N (stereo not drawn) [Compound 2, Methyl(oxido){1-methyl-1-[2-(trifluoromethyl)-1,3-thiazol-5-yl]ethyl}-λ^4-sulfanylidenecyanamide] | C (70-79) | A (90-100) | 
3 | CC(c1cnc(C(F)(F)F)s1)S(C)(=O)=NC#N (stereo not drawn) [Compound 3, Methyl(oxido){1-[2-(trifluoromethyl)-1,3-thiazol-5-yl]ethyl}-λ^4-sulfanylidenecyanamide] | A (90-100) | A (90-100) | 
4 | N#CN=S1(=O)CCCC1Cc1cnc(C(F)(F)F)s1 (stereo not drawn) [Compound 4, 1-Oxo-2-(2-trifluoromethyl-thiazol-5-ylmethyl)-tetrahydro-1-λ^6-thiophen-1-ylidene-cyanamide] | A (90-100) | A (90-100) | 
5 | CS(=O)(Cc1csc(C(F)(F)F)n1)=NC#N (stereo not drawn) [Compound 5, Methyl(oxido){[2-(trifluoromethyl)-1,3-thiazol-4-yl]methyl}-λ^4-sulfanylidenecyanamide] | E (50-59) | C (70-79) | 66 to 68
